{"source": "patent US20150031572A1", "about": "“MEANS AND METHODS FOR ASSESSING NEURONAL TOXICITY” (priority 2012, published 2015)", "experiment": "Plasma metabolite profiling (GC-MS, LC-MS, SPE-LC-MS) of rats dosed once daily over 28 days; treatment ratios versus untreated control", "type": "in vivo, rat", "conditions": "for 5-Oxoproline, plasma metabolite ratio versus control / Alanine, plasma metabolite ratio versus control / Arginine (second line of the table), plasma metabolite ratio versus control / Arginine, plasma metabolite ratio versus control / Citrulline, plasma metabolite ratio versus control / Glutamine, plasma metabolite ratio versus control / Proline, plasma metabolite ratio versus control / Tyrosine, plasma metabolite ratio versus control / Creatinine, ratio versus control: male rats; for 5-Oxoproline, plasma metabolite ratio versus control / Alanine, plasma metabolite ratio versus control / Arginine (second line of the table), plasma metabolite ratio versus control / Arginine, plasma metabolite ratio versus control / Citrulline, plasma metabolite ratio versus control / Glutamine, plasma metabolite ratio versus control / Proline, plasma metabolite ratio versus control / Tyrosine, plasma metabolite ratio versus control: high dose; for Creatinine, ratio versus control: Table 12a", "in_short": "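Male and female rats (5/sex/group) dosed once daily for 28 days; fasted anaesthetized animals bled retro-orbitally (EDTA plasma) on days 7, 14, 28, stored −80 °C under N2. Polar and lipid fractions profiled by GC-MS (derivatized), LC-MS/MRM; steroids by online SPE-LC-MS. Pool-normalized data; treatment ratios vs sex-matched controls, Welch test p-values.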", "key": {"[1]": {"conditions": "plasma, female rats, day 28, high dose, Table 6a"}, "[2]": {"conditions": "plasma, female rats, day 28, high dose, Table 6b"}, "[3]": {"conditions": "plasma, female rats, day 28, high dose, Table 8c"}, "[4]": {"conditions": "plasma, female rats, day 28, high dose, Table 8d"}}, "note": "Where a name gives a salt, the structure may show the parent alone. Marks after values point to notes of the source that are not given here."}
{"smiles": "C#CCN(C)[C@H](C)Cc1ccccc1", "note": "[Selegiline hydrochloride]", "values": [{"measurement": "3-Methoxytyrosine, ratio versus control", "setting": "[1]", "value": "1.38*"}, {"measurement": "Isoleucine, ratio versus control", "setting": "[1]", "value": "1.18*"}, {"measurement": "4-Hydroxy-3-methoxyphenylglycol (HMPG), ratio versus control", "setting": "[2]", "value": "0.3*"}, {"measurement": "14-Methylhexadecanoic acid, ratio versus control", "setting": "[2]", "value": 1.04}, {"measurement": "16-Methylheptadecanoic acid, ratio versus control", "setting": "[2]", "value": "0.55*"}, {"measurement": "17-Methyloctadecanoic acid, ratio versus control", "setting": "[2]", "value": "0.57*"}, {"measurement": "Ceramide (d18:1,C24:1), ratio versus control", "setting": "[2]", "value": "0.48*"}, {"measurement": "Choline plasmalogen No 03, ratio versus control", "setting": "[2]", "value": 0.82}, {"measurement": "Homovanillic acid (HVA), ratio versus control", "setting": "[2]", "value": "0.45*"}, {"measurement": "Isopalmitic acid (C16:0), ratio versus control", "setting": "[2]", "value": "0.69*"}, {"measurement": "Lactate, ratio versus control", "setting": "[2]", "value": "0.72*"}, {"measurement": "Myristic acid (C14:0), ratio versus control", "setting": "[2]", "value": 0.97}, {"measurement": "Phosphatidylcholine (C16:0, C20:4), ratio versus control", "setting": "[2]", "value": "0.94*"}, {"measurement": "Phosphatidylcholine No 04, ratio versus control", "setting": "[2]", "value": 0.84}, {"measurement": "Pyruvate, ratio versus control", "setting": "[2]", "value": "0.36*"}, {"measurement": "3-Hydroxybutyrate, ratio versus control", "setting": "[3]", "value": "1.29 *"}, {"measurement": "Isoleucine, ratio versus control", "setting": "[3]", "value": "1.18 *"}, {"measurement": "TAG (C16:0,C18:2), ratio versus control", "setting": "[3]", "value": "1.81 *"}, {"measurement": "16-Methylheptadecanoic acid, ratio versus control", "setting": "[4]", "value": "0.55 *"}, {"measurement": "17-Methyloctadecanoic acid, ratio versus control", "setting": "[4]", "value": "0.57 *"}, {"measurement": "Ceramide (d18:1,C24:1), ratio versus control", "setting": "[4]", "value": "0.48 *"}, {"measurement": "Phosphatidylcholine (C16:0, C20:4), ratio versus control", "setting": "[4]", "value": "0.94 *"}, {"measurement": "Phosphatidylcholine (C18:0, C20:3), ratio versus control", "setting": "[4]", "value": "0.92 *"}, {"measurement": "Pyruvate, ratio versus control", "setting": "[4]", "value": "0.36 *"}]}
{"smiles": "CC(=O)[O-].[Tl+]", "note": "[Thallium(I) acetate]", "values": [{"measurement": "5-Oxoproline, plasma metabolite ratio versus control", "setting": "day 7 (m7)", "value": 0.92}, {"measurement": "Alanine, plasma metabolite ratio versus control", "setting": "day 7 (m7)", "value": 0.81}, {"measurement": "Arginine (second line of the table), plasma metabolite ratio versus control", "setting": "day 7 (m7)", "value": 0.90}, {"measurement": "Arginine, plasma metabolite ratio versus control", "setting": "day 7 (m7)", "value": 0.97}, {"measurement": "Citrulline, plasma metabolite ratio versus control", "setting": "day 7 (m7)", "value": 0.84}, {"measurement": "Glutamine, plasma metabolite ratio versus control", "setting": "day 7 (m7)", "value": 0.83}, {"measurement": "Proline, plasma metabolite ratio versus control", "setting": "day 7 (m7)", "value": 0.85}, {"measurement": "Tyrosine, plasma metabolite ratio versus control", "setting": "day 7 (m7)", "value": 0.82}, {"measurement": "5-Oxoproline, plasma metabolite ratio versus control", "setting": "day 14 (m14)", "value": 0.87}, {"measurement": "Alanine, plasma metabolite ratio versus control", "setting": "day 14 (m14)", "value": 0.95}, {"measurement": "Arginine (second line of the table), plasma metabolite ratio versus control", "setting": "day 14 (m14)", "value": 0.80}, {"measurement": "Arginine, plasma metabolite ratio versus control", "setting": "day 14 (m14)", "value": 0.87}, {"measurement": "Citrulline, plasma metabolite ratio versus control", "setting": "day 14 (m14)", "value": 0.84}, {"measurement": "Glutamine, plasma metabolite ratio versus control", "setting": "day 14 (m14)", "value": 0.77}, {"measurement": "Proline, plasma metabolite ratio versus control", "setting": "day 14 (m14)", "value": 0.80}, {"measurement": "Tyrosine, plasma metabolite ratio versus control", "setting": "day 14 (m14)", "value": 0.90}, {"measurement": "5-Oxoproline, plasma metabolite ratio versus control", "setting": "day 28 (m28)", "value": 0.83}, {"measurement": "Alanine, plasma metabolite ratio versus control", "setting": "day 28 (m28)", "value": 0.79}, {"measurement": "Arginine (second line of the table), plasma metabolite ratio versus control", "setting": "day 28 (m28)", "value": 0.85}, {"measurement": "Arginine, plasma metabolite ratio versus control", "setting": "day 28 (m28)", "value": 0.84}, {"measurement": "Citrulline, plasma metabolite ratio versus control", "setting": "day 28 (m28)", "value": 0.94}, {"measurement": "Glutamine, plasma metabolite ratio versus control", "setting": "day 28 (m28)", "value": 0.78}, {"measurement": "Proline, plasma metabolite ratio versus control", "setting": "day 28 (m28)", "value": 0.85}, {"measurement": "Tyrosine, plasma metabolite ratio versus control", "setting": "day 28 (m28)", "value": 0.87}, {"measurement": "Creatinine, ratio versus control", "setting": "plasma, day 7, high dose", "value": 1.69}, {"measurement": "Creatinine, ratio versus control", "setting": "plasma, day 14, high dose", "value": 1.50}, {"measurement": "Creatinine, ratio versus control", "setting": "plasma, day 28, high dose", "value": 1.89}]}
{"smiles": "CC1(C)C(C(Cl)Cl)C2(Cl)C(Cl)C(Cl)C1(Cl)C2(Cl)Cl", "note": "(stereo not drawn) [Toxaphene]", "values": [{"measurement": "5-Oxoproline, plasma metabolite ratio versus control", "setting": "day 7 (m7)", "value": 0.98}, {"measurement": "Alanine, plasma metabolite ratio versus control", "setting": "day 7 (m7)", "value": 0.82}, {"measurement": "Arginine (second line of the table), plasma metabolite ratio versus control", "setting": "day 7 (m7)", "value": 0.87}, {"measurement": "Arginine, plasma metabolite ratio versus control", "setting": "day 7 (m7)", "value": 0.96}, {"measurement": "Citrulline, plasma metabolite ratio versus control", "setting": "day 7 (m7)", "value": 0.87}, {"measurement": "Glutamine, plasma metabolite ratio versus control", "setting": "day 7 (m7)", "value": 0.89}, {"measurement": "Proline, plasma metabolite ratio versus control", "setting": "day 7 (m7)", "value": 0.82}, {"measurement": "Tyrosine, plasma metabolite ratio versus control", "setting": "day 7 (m7)", "value": 0.86}, {"measurement": "5-Oxoproline, plasma metabolite ratio versus control", "setting": "day 14 (m14)", "value": 0.87}, {"measurement": "Alanine, plasma metabolite ratio versus control", "setting": "day 14 (m14)", "value": 0.87}, {"measurement": "Arginine (second line of the table), plasma metabolite ratio versus control", "setting": "day 14 (m14)", "value": 0.79}, {"measurement": "Arginine, plasma metabolite ratio versus control", "setting": "day 14 (m14)", "value": 0.78}, {"measurement": "Citrulline, plasma metabolite ratio versus control", "setting": "day 14 (m14)", "value": 1.07}, {"measurement": "Glutamine, plasma metabolite ratio versus control", "setting": "day 14 (m14)", "value": 0.77}, {"measurement": "Proline, plasma metabolite ratio versus control", "setting": "day 14 (m14)", "value": 0.86}, {"measurement": "Tyrosine, plasma metabolite ratio versus control", "setting": "day 14 (m14)", "value": 0.87}, {"measurement": "5-Oxoproline, plasma metabolite ratio versus control", "setting": "day 28 (m28)", "value": 0.81}, {"measurement": "Alanine, plasma metabolite ratio versus control", "setting": "day 28 (m28)", "value": 0.83}, {"measurement": "Arginine (second line of the table), plasma metabolite ratio versus control", "setting": "day 28 (m28)", "value": 0.84}, {"measurement": "Arginine, plasma metabolite ratio versus control", "setting": "day 28 (m28)", "value": 0.77}, {"measurement": "Citrulline, plasma metabolite ratio versus control", "setting": "day 28 (m28)", "value": 1.10}, {"measurement": "Glutamine, plasma metabolite ratio versus control", "setting": "day 28 (m28)", "value": 0.81}, {"measurement": "Proline, plasma metabolite ratio versus control", "setting": "day 28 (m28)", "value": 0.88}, {"measurement": "Tyrosine, plasma metabolite ratio versus control", "setting": "day 28 (m28)", "value": 0.79}, {"measurement": "Creatinine, ratio versus control", "setting": "plasma, day 7, high dose", "value": 1.41}, {"measurement": "Creatinine, ratio versus control", "setting": "plasma, day 14, high dose", "value": 1.45}, {"measurement": "Creatinine, ratio versus control", "setting": "plasma, day 28, high dose", "value": 1.37}]}
